{"source": "ChEMBL document CHEMBL1201862", "about": "“PubChem BioAssay data set” (2004)", "key": {"[1]": {"molecular_target": "ADP-ribosylation factor GTPase-activating protein 1 (Rattus norvegicus, UniProt Q62848)", "sequence (Q62848 whole entry)": "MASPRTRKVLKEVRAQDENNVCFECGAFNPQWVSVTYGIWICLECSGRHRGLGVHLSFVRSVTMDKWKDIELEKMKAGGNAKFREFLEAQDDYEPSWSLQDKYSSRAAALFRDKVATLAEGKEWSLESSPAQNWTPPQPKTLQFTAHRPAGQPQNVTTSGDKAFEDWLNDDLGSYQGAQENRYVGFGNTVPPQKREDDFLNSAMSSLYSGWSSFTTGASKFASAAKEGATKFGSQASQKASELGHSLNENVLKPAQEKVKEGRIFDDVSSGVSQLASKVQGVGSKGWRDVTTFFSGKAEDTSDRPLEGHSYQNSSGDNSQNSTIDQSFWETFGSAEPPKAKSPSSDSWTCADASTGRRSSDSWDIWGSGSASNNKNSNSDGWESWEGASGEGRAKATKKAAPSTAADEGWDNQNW", "experiment": "Fluorescence polarization-based biochemical high throughput dose response screening assay to identify inhibitors of ADP-ribosylation factor GTPase activating protein 1 (ARFGAP1).", "type": "functional"}, "[2]": {"molecular_target": "Arf-GAP with SH3 domain, ANK repeat and PH domain-containing protein 1 (Homo sapiens, UniProt Q9ULH1)", "sequence (Q9ULH1 whole entry, the tested form may be a part)": "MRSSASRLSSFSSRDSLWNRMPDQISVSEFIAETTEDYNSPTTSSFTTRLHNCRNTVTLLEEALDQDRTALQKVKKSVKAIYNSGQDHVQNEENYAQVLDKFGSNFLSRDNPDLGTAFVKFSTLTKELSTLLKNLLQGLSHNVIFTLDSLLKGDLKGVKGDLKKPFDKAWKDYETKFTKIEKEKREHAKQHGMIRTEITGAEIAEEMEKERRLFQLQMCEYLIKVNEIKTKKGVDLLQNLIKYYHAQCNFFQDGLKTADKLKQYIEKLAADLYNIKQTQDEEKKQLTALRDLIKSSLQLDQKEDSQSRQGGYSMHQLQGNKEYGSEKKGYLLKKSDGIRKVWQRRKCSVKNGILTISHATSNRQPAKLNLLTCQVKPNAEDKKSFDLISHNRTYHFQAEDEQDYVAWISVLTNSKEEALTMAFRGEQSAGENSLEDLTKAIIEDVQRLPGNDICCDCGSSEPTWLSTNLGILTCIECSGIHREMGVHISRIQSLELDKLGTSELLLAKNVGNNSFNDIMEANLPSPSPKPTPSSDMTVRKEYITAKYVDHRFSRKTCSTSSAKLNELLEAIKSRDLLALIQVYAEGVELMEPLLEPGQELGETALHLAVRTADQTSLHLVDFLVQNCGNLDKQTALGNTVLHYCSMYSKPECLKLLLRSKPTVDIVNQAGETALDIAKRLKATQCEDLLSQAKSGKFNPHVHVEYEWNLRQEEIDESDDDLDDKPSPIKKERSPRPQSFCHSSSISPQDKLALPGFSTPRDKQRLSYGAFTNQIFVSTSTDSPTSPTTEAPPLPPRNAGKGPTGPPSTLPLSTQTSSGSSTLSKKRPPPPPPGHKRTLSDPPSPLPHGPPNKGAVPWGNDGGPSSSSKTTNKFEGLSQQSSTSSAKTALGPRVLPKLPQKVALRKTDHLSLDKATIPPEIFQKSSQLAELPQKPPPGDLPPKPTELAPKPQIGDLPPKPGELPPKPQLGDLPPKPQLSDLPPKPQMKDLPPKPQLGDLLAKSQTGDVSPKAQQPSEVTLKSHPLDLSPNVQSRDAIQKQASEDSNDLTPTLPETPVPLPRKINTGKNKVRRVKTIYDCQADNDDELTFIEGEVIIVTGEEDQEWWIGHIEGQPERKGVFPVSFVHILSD", "type": "functional"}, "[3]": {"experiment": "HEK293T cell cytotoxicity, dose response, cytotoxicity control for HIV Vif inhibitor project, cherry-picks (AID 652208)", "type": "functional, cell-based"}, "[4]": {"experiment": "Luminescence Cell-Based Dose Retest to Confirm Inhibitors of Cancer Stem Cells. [Related pubchem assays (depositor defined):AID2717, AID2721]", "type": "functional", "conditions": "Homo sapiens"}, "[5]": {"experiment": "MITF: Counter assay: A375 proliferation Measured in Cell-Based System Using Plate Reader - 2084-03_Inhibitor_Dose_DryPowder_Activity_Set8.", "type": "functional", "conditions": "A-375"}, "[6]": {"experiment": "TRPM1 promoter luciferase reporter signal decrease, dose response, MITF inhibitor project, cell-based, SK-MEL-5, dry powder, set 8 (AID 624430)", "type": "functional"}, "[7]": {"experiment": "MITF Orthogonal Assay: SK-MEL-5 CTG Assay Measured in Cell-Based System Using Plate Reader - 2084-02_Inhibitor_Dose_DryPowder_Activity_Set7.", "type": "functional"}, "[8]": {"experiment": "inhibitors of HIV Env-driven cell fusion, dose response, cherry-pick (AID 652057)", "type": "functional, cell-based"}, "[9]": {"experiment": "inhibitors of clade B AD8 Env fusion, dose response, cell-based, cherry-pick (AID 652062);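 further: potency is for inhibitors of fusion seen as a drop in luminescence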", "type": "functional"}, "[10]": {"experiment": "NIH/3T3 fibroblast cytotoxicity, dose response, cytotoxicity control for T. cruzi growth inhibitor project, cell-based, cherry-pick samples, set 2 (AID 651817)", "type": "functional", "conditions": "NIH3T3"}, "[11]": {"experiment": "intracellular Trypanosoma cruzi inhibitors in host cells – cell-based, plate reader, cherry-pick samples, set 3, dose response (AID 651818);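 further: compounds incubated with infected cells for about four days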", "type": "functional"}, "[12]": {"experiment": "CEM21 lymphoblast cell cytotoxicity, dose response, cytotoxicity control for viral fusion inhibitor project, CellTiter-Glo luminescence, cherry-picked (AID 652042)", "type": "functional, cell-based"}, "[13]": {"molecular_target": "Endoplasmic reticulum aminopeptidase 1 (Homo sapiens, UniProt Q9NZ08)", "sequence (Q9NZ08 whole entry)": "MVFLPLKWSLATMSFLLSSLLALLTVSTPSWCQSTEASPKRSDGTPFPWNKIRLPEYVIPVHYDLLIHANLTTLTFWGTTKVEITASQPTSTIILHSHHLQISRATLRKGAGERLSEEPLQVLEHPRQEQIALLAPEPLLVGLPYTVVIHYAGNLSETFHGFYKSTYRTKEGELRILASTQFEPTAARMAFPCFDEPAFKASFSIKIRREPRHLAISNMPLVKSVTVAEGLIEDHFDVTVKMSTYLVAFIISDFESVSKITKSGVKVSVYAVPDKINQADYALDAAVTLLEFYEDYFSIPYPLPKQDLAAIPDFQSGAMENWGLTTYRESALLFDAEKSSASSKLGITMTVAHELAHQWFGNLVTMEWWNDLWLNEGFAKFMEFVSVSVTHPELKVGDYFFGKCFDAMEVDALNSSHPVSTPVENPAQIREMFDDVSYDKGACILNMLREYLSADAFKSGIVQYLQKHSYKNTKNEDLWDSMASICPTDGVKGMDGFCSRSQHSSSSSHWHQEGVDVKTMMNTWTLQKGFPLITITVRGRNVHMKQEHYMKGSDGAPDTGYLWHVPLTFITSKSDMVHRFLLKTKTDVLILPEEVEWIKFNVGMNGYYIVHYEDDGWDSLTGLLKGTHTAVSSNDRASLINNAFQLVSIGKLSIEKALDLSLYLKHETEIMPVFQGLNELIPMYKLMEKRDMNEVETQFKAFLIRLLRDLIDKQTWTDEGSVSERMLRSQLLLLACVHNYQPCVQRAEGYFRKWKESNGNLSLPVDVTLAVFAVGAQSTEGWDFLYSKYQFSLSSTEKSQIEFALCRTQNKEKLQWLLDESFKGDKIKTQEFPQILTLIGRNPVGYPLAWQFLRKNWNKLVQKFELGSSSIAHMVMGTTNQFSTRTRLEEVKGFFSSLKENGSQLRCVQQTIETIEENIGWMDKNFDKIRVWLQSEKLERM", "experiment": "ERAP1 aminopeptidase inhibitors, dose response, biochemical, cherry-pick, set 2, plate reader (AID 743314)"}, "cells": {"experiment": "cells", "type": "functional, cell-based", "conditions": "HEK-CNG"}, "Galanin receptor type 3": {"molecular_target": "Galanin receptor type 3 (Homo sapiens, UniProt O60755)", "experiment": "Fluorescence-based cell-based primary high throughput dose response assay to identify antagonists of the Galanin Receptor 3 (GalR3).", "type": "functional"}, "[14]": {"molecular_target": "1-phosphatidylinositol 4,5-bisphosphate phosphodiesterase beta-3 (Homo sapiens, UniProt Q01970)", "experiment": "Fluorescence-based biochemical high throughput dose response assay to identify inhibitors of phospholipase C isozymes (PLC-B3)."}, "[15]": {"molecular_target": "1-phosphatidylinositol 4,5-bisphosphate phosphodiesterase gamma-1 (Homo sapiens, UniProt P19174)", "sequence (P19174 whole entry)": "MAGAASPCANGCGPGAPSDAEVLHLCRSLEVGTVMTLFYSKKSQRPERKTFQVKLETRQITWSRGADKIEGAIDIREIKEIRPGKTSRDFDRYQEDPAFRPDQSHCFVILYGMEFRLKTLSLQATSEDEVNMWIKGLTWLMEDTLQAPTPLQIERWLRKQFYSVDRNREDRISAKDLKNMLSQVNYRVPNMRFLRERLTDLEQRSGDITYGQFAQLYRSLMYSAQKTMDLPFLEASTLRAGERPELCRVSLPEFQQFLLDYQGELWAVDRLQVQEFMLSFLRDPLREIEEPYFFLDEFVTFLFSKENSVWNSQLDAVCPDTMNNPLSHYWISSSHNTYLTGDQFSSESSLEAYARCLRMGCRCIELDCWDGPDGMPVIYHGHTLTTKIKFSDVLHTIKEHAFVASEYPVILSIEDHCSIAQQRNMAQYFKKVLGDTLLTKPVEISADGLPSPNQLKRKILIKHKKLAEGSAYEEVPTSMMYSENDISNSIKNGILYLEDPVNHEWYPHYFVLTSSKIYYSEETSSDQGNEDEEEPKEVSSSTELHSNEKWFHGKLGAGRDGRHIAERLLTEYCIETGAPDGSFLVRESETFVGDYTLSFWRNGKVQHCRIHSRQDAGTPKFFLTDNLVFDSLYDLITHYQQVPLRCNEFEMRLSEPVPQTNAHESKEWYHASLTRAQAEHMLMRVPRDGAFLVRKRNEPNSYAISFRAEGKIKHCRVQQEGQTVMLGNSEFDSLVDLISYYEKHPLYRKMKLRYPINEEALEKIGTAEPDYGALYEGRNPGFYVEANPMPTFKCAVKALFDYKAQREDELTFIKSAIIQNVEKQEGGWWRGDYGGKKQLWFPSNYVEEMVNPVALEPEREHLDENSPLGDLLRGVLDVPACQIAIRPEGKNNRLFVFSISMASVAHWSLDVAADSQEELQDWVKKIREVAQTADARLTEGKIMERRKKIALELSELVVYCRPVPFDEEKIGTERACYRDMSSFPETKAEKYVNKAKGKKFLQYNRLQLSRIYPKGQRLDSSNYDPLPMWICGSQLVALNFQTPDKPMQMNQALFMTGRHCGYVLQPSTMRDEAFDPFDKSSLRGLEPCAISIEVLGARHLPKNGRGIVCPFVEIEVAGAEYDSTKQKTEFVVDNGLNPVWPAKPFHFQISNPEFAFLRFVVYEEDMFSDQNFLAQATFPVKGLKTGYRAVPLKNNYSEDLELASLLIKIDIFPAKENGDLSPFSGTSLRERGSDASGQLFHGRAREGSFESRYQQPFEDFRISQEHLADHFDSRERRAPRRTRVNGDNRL", "experiment": "Counterscreen for inhibitors of phospholipase C isozymes (PLC-B3): Fluorescence-based biochemical high throughput dose response assay to identify inhibitors of phospholipase C isozymes (PLC-gamma1)."}, "[16]": {"molecular_target": "Metabotropic glutamate receptor 3 (Rattus norvegicus, UniProt P31422)", "sequence (P31422 whole entry)": "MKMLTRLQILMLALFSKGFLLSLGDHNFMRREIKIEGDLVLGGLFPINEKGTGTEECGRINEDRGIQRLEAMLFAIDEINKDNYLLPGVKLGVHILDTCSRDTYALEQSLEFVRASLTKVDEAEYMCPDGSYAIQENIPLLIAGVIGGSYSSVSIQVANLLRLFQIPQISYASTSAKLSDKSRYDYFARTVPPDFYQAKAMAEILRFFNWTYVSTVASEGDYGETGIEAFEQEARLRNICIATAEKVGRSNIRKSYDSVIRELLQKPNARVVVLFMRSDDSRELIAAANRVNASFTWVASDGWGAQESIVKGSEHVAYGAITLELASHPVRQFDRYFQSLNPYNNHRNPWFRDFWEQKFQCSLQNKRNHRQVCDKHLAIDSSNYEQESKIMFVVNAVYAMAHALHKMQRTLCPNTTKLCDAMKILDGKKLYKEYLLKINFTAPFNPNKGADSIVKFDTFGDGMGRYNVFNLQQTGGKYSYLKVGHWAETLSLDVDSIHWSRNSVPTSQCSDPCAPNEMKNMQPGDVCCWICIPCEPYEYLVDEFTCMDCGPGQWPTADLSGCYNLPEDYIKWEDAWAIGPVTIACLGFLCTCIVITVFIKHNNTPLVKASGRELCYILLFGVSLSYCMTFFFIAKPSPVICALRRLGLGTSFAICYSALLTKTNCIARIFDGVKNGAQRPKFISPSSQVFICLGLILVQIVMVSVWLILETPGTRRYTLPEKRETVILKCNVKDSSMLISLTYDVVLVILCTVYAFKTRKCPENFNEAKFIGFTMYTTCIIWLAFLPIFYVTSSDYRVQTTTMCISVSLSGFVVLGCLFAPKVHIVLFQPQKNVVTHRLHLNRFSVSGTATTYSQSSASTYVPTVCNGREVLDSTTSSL", "experiment": "mGlu3 negative allosteric modulator potency, dose response, HEK/GIRK cells, thallium flux, rat (AID 651839)", "type": "functional"}, "[17]": {"molecular_target": "T1, Aryl hydrocarbon receptor (Homo sapiens, UniProt P35869)", "T1 sequence (P35869 whole entry)": "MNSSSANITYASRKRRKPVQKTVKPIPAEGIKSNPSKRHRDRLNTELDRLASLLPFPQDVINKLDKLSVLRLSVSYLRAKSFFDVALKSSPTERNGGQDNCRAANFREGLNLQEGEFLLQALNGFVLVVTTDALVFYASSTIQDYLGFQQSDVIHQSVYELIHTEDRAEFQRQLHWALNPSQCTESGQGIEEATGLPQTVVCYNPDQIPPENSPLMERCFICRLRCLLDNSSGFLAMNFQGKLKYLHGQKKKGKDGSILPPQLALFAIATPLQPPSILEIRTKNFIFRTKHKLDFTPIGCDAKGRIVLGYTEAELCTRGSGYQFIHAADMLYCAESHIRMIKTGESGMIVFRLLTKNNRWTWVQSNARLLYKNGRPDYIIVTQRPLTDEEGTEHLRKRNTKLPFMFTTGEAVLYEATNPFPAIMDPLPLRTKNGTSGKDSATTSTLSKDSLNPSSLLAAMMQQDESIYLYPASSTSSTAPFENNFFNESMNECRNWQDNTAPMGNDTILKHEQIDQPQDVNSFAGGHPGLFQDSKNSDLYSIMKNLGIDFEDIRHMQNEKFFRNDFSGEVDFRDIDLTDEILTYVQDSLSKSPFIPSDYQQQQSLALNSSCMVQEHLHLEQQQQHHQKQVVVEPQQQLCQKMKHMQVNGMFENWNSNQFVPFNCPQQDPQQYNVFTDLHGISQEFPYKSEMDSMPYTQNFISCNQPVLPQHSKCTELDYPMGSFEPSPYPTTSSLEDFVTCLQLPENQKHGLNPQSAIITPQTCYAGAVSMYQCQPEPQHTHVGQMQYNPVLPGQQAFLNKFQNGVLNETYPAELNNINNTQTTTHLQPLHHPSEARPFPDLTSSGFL", "conditions": "Potency"}, "Beta-lactamase [18]": {"molecular_target": "Beta-lactamase (Salmonella choleraesuis (strain SC-B67), UniProt Q5J463)", "sequence (Q5J463 whole entry)": "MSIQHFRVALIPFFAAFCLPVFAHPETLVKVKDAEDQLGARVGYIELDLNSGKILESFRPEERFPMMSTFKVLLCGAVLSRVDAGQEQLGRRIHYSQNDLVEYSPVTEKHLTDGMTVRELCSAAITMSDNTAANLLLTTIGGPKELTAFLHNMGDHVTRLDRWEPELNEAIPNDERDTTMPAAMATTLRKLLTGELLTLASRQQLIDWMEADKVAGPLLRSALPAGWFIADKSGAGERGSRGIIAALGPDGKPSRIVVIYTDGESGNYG"}, "Beta-lactamase [19]": {"molecular_target": "Beta-lactamase (Pseudomonas aeruginosa, UniProt Q79MP6)"}}, "note": "pIC50: −log10 of the molar value. Activity calls are given as the source filed them.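 Wherever EC50 is given: target is galanin receptor GalR3 read with a cAMP biosensor in HEK293 cells.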"}
{"smiles": "COc1ccc(/C=N\\NC(=O)c2ccc([N+](=O)[O-])cc2)cc1COc1c(F)c(F)cc(F)c1F", "values": [{"measurement": "IC50", "setting": "[1]", "value": "12.4 µM (inactive)"}, {"measurement": "IC50", "setting": "[2]", "value": "15.7 µM (inactive)"}]}
{"smiles": "Cc1cc(C)cc(NC(=O)CCc2nc(O)c3c4c(sc3n2)CCCC4)c1", "values": [{"measurement": "AC50", "setting": "[3]", "value": "37.5 µM (active)"}, {"measurement": "AC50", "setting": "[4]", "value": "0.91 µM (active)"}]}
{"smiles": "CCN1CCN(C2=C(Nc3cccc(Br)c3)C(=O)c3ccccc3C2=O)CC1", "values": [{"measurement": "AC50", "setting": "[5]", "value": "26.2 µM (active)"}, {"measurement": "AC50", "setting": "[6]", "value": "3.45 µM (active)"}, {"measurement": "AC50", "setting": "[7]", "value": "8.08 µM (active)"}]}
{"smiles": "C[C@@H]1CN([C@H](C)CO)C(=O)c2cccc(NC(=O)c3ccncc3)c2O[C@H]1CN(C)Cc1ccc(Cl)c(Cl)c1", "values": [{"measurement": "AC50", "setting": "[8]", "value": "7.3 µM (active)"}, {"measurement": "AC50", "setting": "[9]", "value": "29.8 µM (active)"}, {"measurement": "AC50", "setting": "[10]", "value": "27.6 µM (active)"}, {"measurement": "AC50", "setting": "[11]", "value": "0.08 µM (active)"}, {"measurement": "AC50", "setting": "[12]", "value": "38.5 µM (active)"}]}
{"smiles": "COc1ccc2c3c([nH]c2c1)[C@@H](CO)N(Cc1ccccc1OC)CC31CN(C)C1", "values": [{"measurement": "AC50", "setting": "[13]", "value": "15.8 µM (active)"}]}
{"smiles": "C[C@H]1C[C@H]2[C@@H]3CCC4=CC(=O)C=C[C@]4(C)[C@@]3(F)[C@@H](O)C[C@]2(C)[C@@]1(O)C(=O)CO", "note": "[BETAMETHASONE]", "values": [{"measurement": "EC50", "setting": "cells", "value": "> 29.9 µM (inactive)"}, {"measurement": "IC50", "setting": "Galanin receptor type 3", "value": "> 29.9 µM (inactive)"}]}
{"smiles": "CN(C(=O)c1ccccc1)C1c2c(ccc3ccccc23)OCC1CO", "note": "(stereo unspecified)", "values": [{"measurement": "IC50", "setting": "[14]", "value": "> 122 µM (inactive)"}, {"measurement": "IC50", "setting": "[15]", "value": "> 122 µM (inactive)"}]}
{"smiles": "COc1ccc(C#Cc2ccc(C(=O)N3CCC[C@@H](O)C3)cc2)c(F)c1", "values": [{"measurement": "pIC50", "setting": "[16]", "value": 5.37}]}
{"smiles": "CNc1cnn(-c2cccc(C(F)(F)F)c2)c(=O)c1Cl", "note": "[NORFLURAZONE]", "values": [{"measurement": "AC50", "setting": "[17]", "value": "31.6 µM (inconclusive)"}]}
{"smiles": "O=C(Nc1ccc(C(F)(F)F)cc1)c1ccc(NC(=O)C2CCCO2)cc1", "note": "(stereo unspecified)", "values": [{"measurement": "IC50", "setting": "Beta-lactamase [18]", "value": "> 59.6 µM (inactive)"}, {"measurement": "IC50", "setting": "Beta-lactamase [19]", "value": "47.5 µM (inactive)"}]}
